Experimental findings from patent publication US20210371817A1, “COMPOSITIONS AND METHODS FOR PRECISE PATTERNING OF POSTERIOR NEUROECTODERM FROM HUMAN PLURIPOTENT STEM CELLS” (WISCONSIN ALUMNI RESEARCH FOUNDATION, priority 2013, published 2021) are described below.

Assay [1] has as its system neuromesodermal cells. The assay can be described thus: Pax6 and HoxD10 expression after GDF11 with or without dorsomorphin, then RA. It counts as cell-based, human. The following applies: GDF11 present in the neuromesodermal morphogen cocktail. The text has this:
(FIG. 7A) Timeline of differentiation. (FIG. 7B) qPCR assessment of lumbar/sacral gene expression at day 12. A minimum concentration of GDF11 is required to activate HoxD10 and HoxA11. Each gene is normalized to the maximum GDF11 dose. Error bars are standard deviation calculated from duplicate reactions. (FIG. 7C) Expression of Pax6 in response to increased GDF11 concentrations. Data were collected by flow cytometry and represented as mean±standard deviation calculated from two biological replicates. Sox2 was uniformly expressed regardless of GDF11 treatment (data not shown). […] Grey histograms, IgG control; Red histograms, Pax6. Data are representative of two biological replicates. […] Percentages were quantified as HoxD10 labeling relative to DAPI-stained nuclei (>2500 total cells counted per sample). Scale bars, 100 μm
After neural tube closure in vivo, opposing gradients of TGFβ and SHH signaling produce distinct dorsal and ventral domains from which sensory neurons, interneurons, and motor neurons arise. Pax6, which has been identified as a neuroectoderm fate determinant, is expressed throughout most of the neural tube but is absent from the most dorsal and ventral domains. […] The ability of GDF11 to control rostral/caudal patterning is mediated by signaling via ALK5 and activation of the SMAD2/3 complex. […]

The test system of assay [2] is NSC cultures. Put plainly: Hox protein expression in NSC cultures after RA treatment (immunocytochemistry, flow cytometry). It counts as cell-based, human. Here is the method: Assessment of neuroectoderm or mesoderm fate transition by flow cytometry. Grey histogram, IgG control; red histogram, antigen of interest. Data are presented as mean±standard deviation calculated from two biological replicates. (FIG. 8B) For experiments in panels FIGS. 8C-8F, neuromesodermal propagation was halted by removing FGF8b/CHIR 99021/GDF11 and adding RA. Assays were conducted after 4 days of RA treatment. (FIG. 8C) HOX profiles generated after RA treatment. Each gene is normalized to its maximum expression. Error bars are standard deviation calculated from duplicate reactions. (FIG. 8D) HoxB4 and HoxD10 expression in neuroepithelial cultures after RA treatment. Scale bars, 100 m. (FIG. 8E) Purity of Sox2, Pax6, HoxB4, and HoxD10 after 4 days of RA treatment. Sox2, Pax6, and HoxB4 were quantified using flow cytometry and HoxD10 was quantified by manual counting of dissociated cells ([…]). Error bars are standard deviation calculated from at least two biological replicates. […] (FIG. 8F) Motor neuron differentiation at cervical, thoracic, and lumbar spinal cord depths, where the motor neuron precursors show region-specific patterns of FoxP1, Isl1, and Hb9 co-expression. (FIG. 8G) Neuronal maturation from cervical, thoracic, and lumbar patterned NSCs, as assessed by immunocytochemistry (top panel; DAPI (blue) is overlaid in all images; Scale bars, 20 m) and RT-PCR (50 cycles; bottom panel).
FIGS. 9A-9C (FIG. 9A) provides additional data showing that RA induces a neuroectodermal fate and halts colinear HOX activation, using the neural differentiation scheme shown in FIG. 8B and representative hindbrain cultures assessed by qPCR. (FIG. 9B) Representative hindbrain cultures assessed by immunocytochemistry. (FIG. 9C) Representative hindbrain cultures assessed by flow cytometry. All data are presented as mean±S.D. and qPCR data are normalized to the time point of maximum expression for each gene. For the hindbrain cultures, HoxB1 and HoxB4 were quantified by immunocytochemistry relative to DAPI+ nuclei, while Sox2 and Pax6 were quantified by flow cytometry. Scale bars, 100 m.
Flow cytometry. Flow cytometry was conducted as described in the Examples above. Primary antibodies against Sox2 (mouse; 1:1000; Millipore), brachyury (goat; 1:200; R&D Systems), Pax6 (mouse; 1:200; DSHB), and HoxB4 (rat; 1:50; DSHB) were utilized. Samples were run on a FACSCaliber (BD Biosciences) and data were analyzed using Cyflogic software. Positive events were quantified by gating above the top 1% of species-matched IgG controls.
Immunocytochemistry. Immunocytochemistry was conducted as previously described. […]
(In general: A flow cytometer gives signals particle by particle.)

In the case of “GDF11: Growth differentiation factor 11, a TGFβ family member”, the “Pax6 expression after RA” value in assay [1] is recorded as “decreased”. In addition, the “HoxD10+ cells” value worked out at 0% in assay [2] (RA added at 120 h of neuromesodermal propagation) and 89±2% in assay [2] (RA added at 144 h of neuromesodermal propagation, after GDF11 treatment).
